Test [1] deals with Histone acetyltransferase KAT5 (Homo sapiens, UniProt Q92993). Kind of test: (§1) Kat5 Assay: A. Compound preparation 1. Prepare 10 mM stock solutions in 100% DMSO from solid material 2. Serial dilute 10 mM, 1 mM or 0.1 mM compound stocks 3-fold in 100% DMSO for 11-point dose responseB. Reagent preparation 1. Prepare 1× assay buffer containing 10 mM Tris HCL pH 8.0, 2.5 mM NaCl, 0.5 mM EDTA, 0.005% BSG and 0.02% Tween-20 2. Dilute Histone peptide (CPC Scientific) and AcCoA (Sigma) together in assay buffer to 2×. 3. Dilute KAT enzyme in assay buffer to 2×.C. Enzyme reaction 1. Final reaction conditions for each KAT assay in a 20 ul assay reaction volume: KAT5 25 nM, 1 uM AcCoA, 2 uM H4 1-21 peptide, 30-minute reaction 2. Add 0.5 ul of diluted compound to the assay plate (384-well V-bottom polypropylene plates) or 0.5 ul of DMSO for control wells. 3. Add 10 ul of 2× Histone peptide/2×AcCoA mix to the assay plate. 4. Add 10 ul of 2× enzyme to the assay plate. 5. Stop the reaction after the indicated time with the addition of 2 ul of 5% formic acid 6. Each reaction was analyzed using self-assembled monolayer desorption/ionization time-of-flight mass spectrometry (Mrksich, Milan (2008) Mass Spectrometry of Self-Assembled Monolayers: A New Tool for Molecular Surface Science ACS Nano 2008 2 (1), 7-18; SAMDI Tech, Inc. (Chicago, Ill.)). 7. […].

For test [2], the target named is Histone acetyltransferase KAT6A (Homo sapiens, UniProt Q92794). Described as §1, with “Kat6A Assay 1:” for “Kat5 Assay:”, “ii. KAT6A 15” for “KAT5 25”, “H3” for “H4”, “45-minute” for “30-minute”.
Test [3] has as its target T1, Histone acetyltransferase KAT8 (Homo sapiens, UniProt Q9H7Z6).
T1 sequence (Q9H7Z6 whole entry): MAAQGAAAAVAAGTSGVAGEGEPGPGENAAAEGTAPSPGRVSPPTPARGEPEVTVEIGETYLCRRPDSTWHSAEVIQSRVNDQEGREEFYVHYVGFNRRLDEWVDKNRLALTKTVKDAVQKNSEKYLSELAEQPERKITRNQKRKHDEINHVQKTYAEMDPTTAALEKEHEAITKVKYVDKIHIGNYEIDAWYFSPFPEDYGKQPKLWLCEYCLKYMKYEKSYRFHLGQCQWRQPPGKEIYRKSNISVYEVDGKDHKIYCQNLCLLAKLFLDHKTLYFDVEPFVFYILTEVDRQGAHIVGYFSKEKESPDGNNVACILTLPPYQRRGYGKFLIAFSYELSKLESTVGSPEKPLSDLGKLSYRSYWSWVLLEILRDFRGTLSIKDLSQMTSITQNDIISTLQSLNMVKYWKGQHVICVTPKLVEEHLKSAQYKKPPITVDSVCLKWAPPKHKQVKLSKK
The test is described as §1, with “Kat8” for “Kat5”, “TBDA.” for “A.”, “KAT8 15” for “KAT5 25”, “H3” for “H4”, “45-minute” for “30-minute”.

In test [4] the target is Histone acetyltransferase KAT6B (Homo sapiens, UniProt Q8WYB5). The test is described as §1, with “Kat6B Assay 1:” for “Kat5 Assay:”, “KAT6B” for “KAT5”, “H3” for “H4”, “60-minute” for “30-minute”.
In test [5] the target is Histone acetyltransferase KAT7 (Homo sapiens, UniProt O95251). Described as §1, with “Kat7” for “Kat5”, “KAT7 12.5” for “KAT5 25”, “H3” for “H4”, “45-minute” for “30-minute”.

Histone acetyltransferase KAT6A, sequence (Q92794 whole entry): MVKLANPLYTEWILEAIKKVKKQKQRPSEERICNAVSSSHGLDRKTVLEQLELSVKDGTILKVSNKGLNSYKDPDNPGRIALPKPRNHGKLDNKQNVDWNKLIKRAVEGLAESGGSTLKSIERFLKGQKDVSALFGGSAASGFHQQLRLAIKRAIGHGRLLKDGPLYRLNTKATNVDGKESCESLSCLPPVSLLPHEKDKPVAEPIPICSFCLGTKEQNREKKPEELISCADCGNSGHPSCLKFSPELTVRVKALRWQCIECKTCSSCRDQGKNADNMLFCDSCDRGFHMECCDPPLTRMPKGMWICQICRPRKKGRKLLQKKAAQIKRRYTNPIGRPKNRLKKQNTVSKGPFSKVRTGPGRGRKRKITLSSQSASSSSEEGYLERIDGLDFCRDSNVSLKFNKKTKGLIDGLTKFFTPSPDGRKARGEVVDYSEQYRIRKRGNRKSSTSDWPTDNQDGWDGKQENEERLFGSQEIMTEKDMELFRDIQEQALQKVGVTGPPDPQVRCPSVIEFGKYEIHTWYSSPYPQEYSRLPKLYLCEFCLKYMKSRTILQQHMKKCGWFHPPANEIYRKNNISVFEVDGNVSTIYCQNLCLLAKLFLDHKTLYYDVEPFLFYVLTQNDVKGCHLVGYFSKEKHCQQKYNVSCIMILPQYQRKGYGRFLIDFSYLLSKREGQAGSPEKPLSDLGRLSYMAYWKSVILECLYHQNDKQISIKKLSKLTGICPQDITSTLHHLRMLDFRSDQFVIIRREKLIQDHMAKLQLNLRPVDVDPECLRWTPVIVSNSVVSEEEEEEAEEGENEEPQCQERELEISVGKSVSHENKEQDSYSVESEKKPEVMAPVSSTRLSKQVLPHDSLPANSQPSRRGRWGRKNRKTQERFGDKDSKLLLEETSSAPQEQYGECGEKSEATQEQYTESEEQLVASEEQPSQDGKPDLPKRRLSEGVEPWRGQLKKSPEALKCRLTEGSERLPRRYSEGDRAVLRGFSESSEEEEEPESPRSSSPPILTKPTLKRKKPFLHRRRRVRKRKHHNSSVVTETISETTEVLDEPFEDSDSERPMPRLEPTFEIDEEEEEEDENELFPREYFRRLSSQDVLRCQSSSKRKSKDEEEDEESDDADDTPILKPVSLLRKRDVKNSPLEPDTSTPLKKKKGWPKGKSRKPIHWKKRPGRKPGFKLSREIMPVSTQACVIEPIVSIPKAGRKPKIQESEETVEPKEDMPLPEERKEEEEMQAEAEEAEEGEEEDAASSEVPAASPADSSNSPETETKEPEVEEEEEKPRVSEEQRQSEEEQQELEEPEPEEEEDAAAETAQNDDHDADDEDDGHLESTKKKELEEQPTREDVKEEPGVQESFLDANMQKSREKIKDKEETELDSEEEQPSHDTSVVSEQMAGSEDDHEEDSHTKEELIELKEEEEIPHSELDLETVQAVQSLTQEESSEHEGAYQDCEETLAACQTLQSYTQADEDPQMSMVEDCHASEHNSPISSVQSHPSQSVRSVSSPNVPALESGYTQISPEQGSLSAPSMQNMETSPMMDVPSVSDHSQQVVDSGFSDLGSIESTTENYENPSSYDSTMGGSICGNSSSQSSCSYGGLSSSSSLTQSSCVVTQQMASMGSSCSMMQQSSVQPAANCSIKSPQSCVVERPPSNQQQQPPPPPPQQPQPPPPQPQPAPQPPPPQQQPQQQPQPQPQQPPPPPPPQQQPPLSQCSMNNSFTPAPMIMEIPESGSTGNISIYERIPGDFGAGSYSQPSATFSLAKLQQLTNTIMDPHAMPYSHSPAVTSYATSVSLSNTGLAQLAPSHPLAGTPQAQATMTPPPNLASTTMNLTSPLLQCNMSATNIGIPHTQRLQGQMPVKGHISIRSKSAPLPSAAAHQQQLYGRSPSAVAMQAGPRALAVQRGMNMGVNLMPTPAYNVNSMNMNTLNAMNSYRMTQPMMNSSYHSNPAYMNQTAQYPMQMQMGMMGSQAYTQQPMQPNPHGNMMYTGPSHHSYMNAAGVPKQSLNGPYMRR
Histone acetyltransferase KAT6B, sequence (Q8WYB5 whole entry): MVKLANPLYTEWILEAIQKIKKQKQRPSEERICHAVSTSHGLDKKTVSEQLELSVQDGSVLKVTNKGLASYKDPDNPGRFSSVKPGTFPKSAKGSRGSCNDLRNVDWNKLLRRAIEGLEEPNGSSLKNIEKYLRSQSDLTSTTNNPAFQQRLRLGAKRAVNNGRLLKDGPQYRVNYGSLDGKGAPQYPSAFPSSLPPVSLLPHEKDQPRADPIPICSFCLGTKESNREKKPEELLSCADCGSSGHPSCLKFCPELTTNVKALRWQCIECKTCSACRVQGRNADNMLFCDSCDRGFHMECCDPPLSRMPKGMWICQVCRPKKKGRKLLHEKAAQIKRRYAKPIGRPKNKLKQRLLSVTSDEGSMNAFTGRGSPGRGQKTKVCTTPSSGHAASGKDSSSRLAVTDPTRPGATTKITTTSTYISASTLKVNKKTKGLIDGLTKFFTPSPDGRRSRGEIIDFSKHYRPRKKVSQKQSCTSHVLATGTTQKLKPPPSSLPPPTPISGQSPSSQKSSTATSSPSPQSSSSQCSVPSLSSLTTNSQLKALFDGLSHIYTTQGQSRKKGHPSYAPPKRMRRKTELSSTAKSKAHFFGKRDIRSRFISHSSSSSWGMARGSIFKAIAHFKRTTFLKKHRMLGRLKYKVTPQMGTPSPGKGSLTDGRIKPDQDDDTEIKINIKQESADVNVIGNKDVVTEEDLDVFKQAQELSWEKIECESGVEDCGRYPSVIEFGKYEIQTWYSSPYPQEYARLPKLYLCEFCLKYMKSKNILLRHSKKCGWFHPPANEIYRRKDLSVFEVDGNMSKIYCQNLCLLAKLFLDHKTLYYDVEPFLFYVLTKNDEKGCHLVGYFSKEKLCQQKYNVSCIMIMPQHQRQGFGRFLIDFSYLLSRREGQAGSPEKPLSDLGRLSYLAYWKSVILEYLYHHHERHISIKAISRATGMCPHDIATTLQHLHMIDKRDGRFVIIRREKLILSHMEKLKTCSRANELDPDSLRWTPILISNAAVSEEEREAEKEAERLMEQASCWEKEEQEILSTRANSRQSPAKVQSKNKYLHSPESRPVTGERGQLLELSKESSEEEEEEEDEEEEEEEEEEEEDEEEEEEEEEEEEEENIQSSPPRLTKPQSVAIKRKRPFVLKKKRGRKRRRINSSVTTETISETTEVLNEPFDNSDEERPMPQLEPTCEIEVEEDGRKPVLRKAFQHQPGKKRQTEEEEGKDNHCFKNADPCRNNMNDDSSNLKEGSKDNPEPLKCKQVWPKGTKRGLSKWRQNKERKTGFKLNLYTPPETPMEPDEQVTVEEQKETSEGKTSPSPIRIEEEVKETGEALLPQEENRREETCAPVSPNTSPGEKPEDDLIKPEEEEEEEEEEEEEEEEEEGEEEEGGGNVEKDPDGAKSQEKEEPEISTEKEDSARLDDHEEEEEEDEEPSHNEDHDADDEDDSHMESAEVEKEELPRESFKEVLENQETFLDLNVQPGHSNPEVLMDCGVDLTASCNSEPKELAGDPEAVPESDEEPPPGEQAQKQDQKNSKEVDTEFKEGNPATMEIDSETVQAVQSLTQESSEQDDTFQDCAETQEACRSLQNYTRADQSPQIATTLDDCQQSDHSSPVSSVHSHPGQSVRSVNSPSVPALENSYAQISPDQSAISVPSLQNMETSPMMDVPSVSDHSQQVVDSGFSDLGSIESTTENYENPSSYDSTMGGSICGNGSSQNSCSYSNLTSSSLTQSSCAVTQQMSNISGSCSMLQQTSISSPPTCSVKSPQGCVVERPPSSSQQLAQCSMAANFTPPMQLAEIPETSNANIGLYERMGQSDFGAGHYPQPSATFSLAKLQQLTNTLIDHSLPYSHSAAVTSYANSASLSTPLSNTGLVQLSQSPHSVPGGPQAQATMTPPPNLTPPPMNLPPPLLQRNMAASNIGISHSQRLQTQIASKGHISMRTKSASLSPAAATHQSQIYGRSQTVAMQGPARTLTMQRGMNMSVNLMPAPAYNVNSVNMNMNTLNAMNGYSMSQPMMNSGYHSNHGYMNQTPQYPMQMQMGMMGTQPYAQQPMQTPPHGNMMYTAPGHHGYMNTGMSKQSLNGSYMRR
Histone acetyltransferase KAT5, sequence (Q92993 whole entry): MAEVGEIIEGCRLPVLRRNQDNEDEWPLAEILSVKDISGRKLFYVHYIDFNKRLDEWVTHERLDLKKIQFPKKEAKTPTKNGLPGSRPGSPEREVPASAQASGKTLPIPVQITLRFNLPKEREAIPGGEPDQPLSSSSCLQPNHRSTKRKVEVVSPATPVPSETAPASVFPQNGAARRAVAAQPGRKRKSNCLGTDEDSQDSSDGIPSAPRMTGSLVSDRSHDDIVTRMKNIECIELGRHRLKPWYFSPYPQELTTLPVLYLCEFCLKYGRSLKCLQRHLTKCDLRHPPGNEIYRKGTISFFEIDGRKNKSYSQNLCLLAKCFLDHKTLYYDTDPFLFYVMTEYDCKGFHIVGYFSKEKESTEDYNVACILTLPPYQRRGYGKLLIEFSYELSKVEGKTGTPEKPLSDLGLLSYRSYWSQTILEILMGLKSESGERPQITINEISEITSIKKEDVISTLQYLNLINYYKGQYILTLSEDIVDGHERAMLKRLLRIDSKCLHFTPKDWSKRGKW

`COc1cc(Cn2cccn2)cc2onc(NS(=O)(=O)c3ccccc3)c12`: the Ki was 5980 nM in test [1]; 10.3 nM in test [2]; 20600 nM in test [3]; 60.8 nM in test [4]; 900 nM in test [5].

For the origin of these results see ChEMBL document CHEMBL5729431, “Benzisoxazole sulfonamide derivatives” (2022).
